Reference: patent US10941114B2, “Small molecule lipid II inhibitors” (University Of Maryland, Baltimore, priority 2015, dated 2021)

Columns and labels:
Assay in all cases: Antibacterial activity assay (MIC, broth dilution)
Assay type in all cases: cell-based
Staphylococcus aureus = details: Staphylococcus aureus; Table 16; CLSI M07-A10 dilution method; read-out: MIC S. aureus
Enterococcus faecium = details: Enterococcus faecium; Table 16; CLSI M07-A10 dilution method; read-out: MIC E. faecium
Procedure: (§1) Determination of the Minimal Inhibitory Concentrations (MIC) by dilution was carried out by broth dilution according to CLSI standards. See CLSI, Methods for Dilution Antimicrobial Susceptibility Tests for Bacteria That Grow Aerobically; Approved Standard—Eighth Edition. 2009, the contents of which are hereby incorporated by reference. Briefly, the minimum inhibitory concentration MIC, is the lowest concentration of a compound that prevents visible growth of a bacterium, in other words at which it has bacteriostatic activity.
For these tests, cation-adjusted Mueller Hinton broth, containing 10% brain-heart infusion (BHI) was used. Concentrations (MIC) are given in μg/mL. The compound was […].
(§2) Compounds were tested for MIC by methods known in the art and described in CLSI, Methods for Dilution Antimicrobial Susceptibility Tests for Bacteria That Grow Aerobically; Approved Standard—Tenth Edition. CLSI document M07-A10. Wayne, Pa.: Clinical and Laboratory Standards Institute, 2015, which is hereby incorporated by reference for these methods.
(§3) Selected compounds also were tested by broth microdilution methods known in the art and described in CLSI, Methods for Dilution Antimicrobial Susceptibility Tests for Bacteria That Grow Aerobically; Approved Standard—Tenth Edition. CLSI document M07-A10. Wayne, Pa.: Clinical and Laboratory Standards Institute, 2015, which is hereby incorporated by reference. Structures of selected compounds in the tables are listed below.

Acinetobacter baumannii = details: Acinetobacter baumannii; Table 16; CLSI M07-A10 dilution method; read-out: MIC A. baumannii
Procedure: as §1, §2, §3

| Compound | MIC (Staphylococcus aureus) [µg/mL] | MIC (Enterococcus faecium) [µg/mL] | MIC (Acinetobacter baumannii) [µg/mL] |
| --- | --- | --- | --- |
| CN(CCO)c1ccc(/C=C/c2cc(-c3ccc(Br)cc3)cc(-c3ccc(Br)cc3)[n+]2C)cc1.[I-] [Compound 9g, (E)-2,4-bis(4-bromophenyl)-6-(4-((2-hydroxyethyl)(methyl)amino)styryl)-1-methylpyridin-1-ium iodide] | 16 | 8 | 32 |
| CCN(C)c1ccc(/C=C/c2cc(-c3ccc(Br)cc3)cc(-c3ccc(Br)cc3)[n+]2C)cc1.[I-] [Compound 9h, (E)-2,4-bis(4-bromophenyl)-6-(4-(ethyl(methyl)amino)styryl)-1-methylpyridin-1-ium iodide] | 16 | 8 | 8 |
| CCN(CC)c1ccc(/C=C/c2cc(-c3ccc(Br)cc3)cc(-c3ccc(Br)cc3)[n+]2C)cc1F.[I-] [Compound 9j, (E)-2,4-bis(4-bromophenyl)-6-(4-(diethylamino)-3-fluorostyryl)-1-methyl-pyridin-1-ium iodide] | 32 | 32 | 64 |
| CN(CCC#N)c1ccc(/C=C/c2cc(-c3ccc(Br)cc3)cc(-c3ccc(Br)cc3)[n+]2C)cc1.[I-] [Compound 9k, (E)-2,4-bis(4-bromophenyl)-6-(4-((2-cyanoethyl)(methyl)amino)styryl)-1-methylpyridin-1-ium iodide] | 32 | 32 | 64 |
| CN(C)c1ccc(/C=C/c2cc(-c3ccc(Br)cc3)cc(-c3cccc(Br)c3)[n+]2C)cc1.[I-] [Compound 9l, (E)-2-(3-bromophenyl)-4-(4-bromophenyl)-6-(4-(dimethylamino)styryl)-1-methylpyridin-1-ium iodide] | 8 | 4 | 16 |
| CCN(CC)c1ccc(/C=C/c2cc(-c3ccc(Br)cc3)cc(-c3cccc(Br)c3)[n+]2C)cc1.[I-] [Compound 9m, (E)-2-(3-bromophenyl)-4-(4-bromophenyl)-6-(4-(diethylamino)styryl)-1-methylpyridin-1-ium iodide] | 8 | 4 | 8 |
| Cc1ccc(-c2cc(-c3ccc(Cl)cc3)cc(/C=C/c3ccc(N(C)C)cc3)[n+]2C)cc1.[I-] [Compound 9n, (E)-4-(4-chlorophenyl)-2-(4-(dimethylamino)styryl)-1-methyl-6-(p-tolyl)-pyridin-1-ium iodide] | 4 | 2 | 4 |
| CCN(CC)c1ccc(/C=C/c2cc(-c3ccc(Cl)cc3)cc(-c3ccc(C)cc3)[n+]2C)cc1.[I-] [Compound 9o, (E)-4-(4-chlorophenyl)-2-(4-(diethylamino)styryl)-1-methyl-6-(p-tolyl)pyridin-1-ium iodide] | 32 | 16 | 16 |
| Cc1ccc(-c2cc(-c3ccc(Cl)cc3)cc(/C=C/c3ccc(N(C)CCC#N)cc3)[n+]2C)cc1.[I-] [Compound 9q, (E)-4-(4-chlorophenyl)-2-(4-((2-cyanoethyl)(methyl)amino)styryl)-1-methyl-6-(p-tolyl)pyridin-1-ium iodide] | 0.25 | 2 | 16 |
| CCN(CC)c1ccc(/C=C/c2cc(-c3ccc(Br)cc3)cc(-c3ccc(C)cc3C)[n+]2C)cc1.[I-] [Compound 9r, (E)-4-(4-bromophenyl)-2-(4-(diethylamino)styryl)-6-(2,4-dimethylphenyl)-1-methylpyridin-1-ium iodide] | 0.5 | 1 | 8 |
| Cc1ccc(-c2cc(-c3ccc(Br)cc3)cc(/C=C/c3ccc(N(C)CCO)cc3)[n+]2C)c(C)c1.[I-] [Compound 9t, (E)-4-(4-bromophenyl)-2-(2,4-dimethylphenyl)-6-(4-((2-hydroxyethyl)(methyl)-amino)styryl)-1-methylpyridin-1-ium iodide] | 0.5 | 2 | 16 |
